This note sets out measurements from ChEMBL document CHEMBL1909046, “DrugMatrix in vitro pharmacology data”.

As a reminder, the IC50 is the concentration at which inhibition is half-maximal.

In data set [1] the target is Cytochrome P450 2C19 (Homo sapiens, UniProt P33261). The following applies: bti-tn-5b1-4. Note: in other assays of this panel Not Active means under 50% inhibition at 10 µM.
Data set [2] in a line: DRUGMATRIX: Glutamate, NMDA, Phencyclidine radioligand binding (ligand: [3H] TCP). It counts as cell membranes, Rattus norvegicus, Wistar, Cerebral cortex, Membrane. The following applies: Not Active = under 50% inhibition at 10 µM.
Data set [3] in a line: DRUGMATRIX: Purinergic P2X radioligand binding (ligand: [3H] alpha, beta-Methylene-ATP). The class given is cell membranes, Oryctolagus cuniculus, New Zealand albino, Urinary bladder, Membrane. The following applies: Not Active = under 50% inhibition at 10 µM.
For data set [4], the target named is Sodium-dependent dopamine transporter (Homo sapiens, UniProt Q01959). Description: DRUGMATRIX: Dopamine Transporter radioligand binding (ligand: [125I] RTI-55). The class given is cell membranes, CHO-K1, Membrane. The following applies: cho-k1; Not Active = under 50% inhibition at 10 µM.
Data set [5] concerns the target T1, Leukotriene C4 synthase (Cavia porcellus, UniProt A6XA80).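 Note: enzyme inhibition assay of leukotriene C4 synthase, using LTA4 as the substrate; in other assays of this panel Not Active means under 50% inhibition at 10 µM.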
T1 sequence (A6XA80 whole entry): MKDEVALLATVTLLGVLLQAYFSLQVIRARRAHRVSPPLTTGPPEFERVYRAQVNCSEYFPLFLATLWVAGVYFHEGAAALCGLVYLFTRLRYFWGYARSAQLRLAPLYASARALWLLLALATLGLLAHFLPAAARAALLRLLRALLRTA
Description: biochemical. The class given is tissue-based, Lung.

Data set [6] addresses T2, Substance-K receptor (Homo sapiens, UniProt P21452).
T2 sequence (P21452 whole entry): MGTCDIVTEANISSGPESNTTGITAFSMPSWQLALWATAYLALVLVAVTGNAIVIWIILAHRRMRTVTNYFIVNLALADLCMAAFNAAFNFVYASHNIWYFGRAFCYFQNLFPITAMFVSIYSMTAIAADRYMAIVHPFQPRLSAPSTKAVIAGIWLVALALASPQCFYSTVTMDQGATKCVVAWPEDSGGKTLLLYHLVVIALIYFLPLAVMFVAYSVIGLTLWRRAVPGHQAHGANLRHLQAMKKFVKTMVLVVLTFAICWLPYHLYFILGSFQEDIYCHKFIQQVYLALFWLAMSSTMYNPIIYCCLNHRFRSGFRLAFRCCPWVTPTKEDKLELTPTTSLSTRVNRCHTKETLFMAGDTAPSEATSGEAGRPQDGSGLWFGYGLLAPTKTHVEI
It counts as cell membranes, CHO, Membrane. Conditions: cho.

The target of data set [7] is C-C chemokine receptor type 2 (Homo sapiens, UniProt P41597). The class given is cell membranes, CHO-K1, Membrane. Conditions: cho-k1. Note: in other assays of this panel Not Active means under 50% inhibition at 10 µM.
Data set [8] has as its target Beta-3 adrenergic receptor (Homo sapiens, UniProt P13945). In words: DRUGMATRIX: Adrenergic beta3 radioligand binding (ligand: [125I] Cyanopindolol). It counts as cell membranes, HEK293, Membrane. Conditions: hek293; Not Active = under 50% inhibition at 10 µM.
The target of data set [9] is Histamine H2 receptor (Homo sapiens, UniProt P25021). The class given is cell membranes, CHO-K1, Membrane. The following applies: cho-k1. Note: in other assays of this panel Not Active means under 50% inhibition at 10 µM.
Data set [10] addresses T3, C-C chemokine receptor type 4 (Homo sapiens, UniProt P51679).
T3 sequence (P51679 whole entry): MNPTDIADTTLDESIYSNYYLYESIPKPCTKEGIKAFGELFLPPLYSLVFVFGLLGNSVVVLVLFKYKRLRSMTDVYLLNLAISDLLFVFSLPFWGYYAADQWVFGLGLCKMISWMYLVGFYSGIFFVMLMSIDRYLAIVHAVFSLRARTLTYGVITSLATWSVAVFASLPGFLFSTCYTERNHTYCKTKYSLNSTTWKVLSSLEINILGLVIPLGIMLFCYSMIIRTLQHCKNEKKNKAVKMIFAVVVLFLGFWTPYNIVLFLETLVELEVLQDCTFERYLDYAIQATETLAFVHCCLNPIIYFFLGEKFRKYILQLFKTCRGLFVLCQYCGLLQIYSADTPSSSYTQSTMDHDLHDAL
It counts as cell membranes, Membrane. Conditions: chem-1.

A short description of data set [11]: DRUGMATRIX: Phosphodiesterase PDE3 enzyme inhibition (substrate: [3H]cAMP + cAMP). It counts as tissue-based, Homo sapiens. Conditions: platelet; Not Active = under 50% inhibition at 10 µM.
Data set [12] concerns the target T4, Muscarinic acetylcholine receptor M4 (Homo sapiens, UniProt P08173). Note: in other assays of this panel Not Active means under 50% inhibition at 10 µM.
T4 sequence (P08173 whole entry): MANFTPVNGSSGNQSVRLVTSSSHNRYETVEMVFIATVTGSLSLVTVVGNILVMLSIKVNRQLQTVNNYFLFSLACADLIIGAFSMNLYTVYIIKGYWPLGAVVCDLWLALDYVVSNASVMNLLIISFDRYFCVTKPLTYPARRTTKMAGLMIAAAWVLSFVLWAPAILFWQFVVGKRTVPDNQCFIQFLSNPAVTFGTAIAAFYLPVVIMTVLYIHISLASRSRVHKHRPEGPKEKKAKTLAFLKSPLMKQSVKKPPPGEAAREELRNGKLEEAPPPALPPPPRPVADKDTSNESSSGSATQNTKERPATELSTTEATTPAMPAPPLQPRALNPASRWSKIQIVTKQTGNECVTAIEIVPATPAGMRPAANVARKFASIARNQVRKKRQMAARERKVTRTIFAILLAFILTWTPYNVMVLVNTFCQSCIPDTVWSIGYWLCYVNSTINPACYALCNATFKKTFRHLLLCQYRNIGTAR
It counts as cell membranes, CHO-K1, Membrane. Conditions: cho-k1.

Data set [13] deals with Tyrosine-protein kinase Fyn (Homo sapiens, UniProt P06241). Description: biochemical. It counts as cell-based, Insect cells.
In data set [14] the target is 5-hydroxytryptamine receptor 4 (Cavia porcellus, UniProt O70528). It counts as cell membranes, Dunkin-Hartley, Striatum, Membrane. Note: in other assays of this panel Not Active means under 50% inhibition at 10 µM.
The nature of data set [15]: DRUGMATRIX: Glutamate, Kainate radioligand binding (ligand: [3H] Kainic acid). The following applies: Not Active = under 50% inhibition at 10 µM. It counts as cell membranes, Rattus norvegicus, Wistar, Brain, Membrane.
The target in data set [16] is T5, D(4) dopamine receptor (Homo sapiens, UniProt P21917).
T5 sequence (P21917 whole entry): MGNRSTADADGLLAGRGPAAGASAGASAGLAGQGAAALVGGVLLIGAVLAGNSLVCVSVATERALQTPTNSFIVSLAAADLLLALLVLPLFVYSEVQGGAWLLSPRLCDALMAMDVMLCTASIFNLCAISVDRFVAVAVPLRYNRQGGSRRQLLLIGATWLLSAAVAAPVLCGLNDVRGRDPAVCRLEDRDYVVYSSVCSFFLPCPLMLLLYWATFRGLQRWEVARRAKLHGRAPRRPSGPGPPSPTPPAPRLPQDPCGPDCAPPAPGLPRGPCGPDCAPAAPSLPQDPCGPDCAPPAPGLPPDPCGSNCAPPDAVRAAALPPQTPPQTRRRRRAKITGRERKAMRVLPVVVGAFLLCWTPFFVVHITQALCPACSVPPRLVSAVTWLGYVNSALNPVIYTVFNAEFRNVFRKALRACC
In words: DRUGMATRIX: Dopamine D4.2 radioligand binding (ligand: [3H] Spiperone). It counts as cell membranes, CHO-K1, Membrane. The following applies: cho-k1; Not Active = under 50% inhibition at 10 µM.

Data set [17] can be described thus: DRUGMATRIX: Sigma2 radioligand binding (ligand: [3H] Ifenprodil). The class given is cell membranes, Rattus norvegicus, Wistar, Brain, Membrane. Conditions: Not Active = under 50% inhibition at 10 µM.

Sodium-dependent dopamine transporter, sequence (Q01959 whole entry): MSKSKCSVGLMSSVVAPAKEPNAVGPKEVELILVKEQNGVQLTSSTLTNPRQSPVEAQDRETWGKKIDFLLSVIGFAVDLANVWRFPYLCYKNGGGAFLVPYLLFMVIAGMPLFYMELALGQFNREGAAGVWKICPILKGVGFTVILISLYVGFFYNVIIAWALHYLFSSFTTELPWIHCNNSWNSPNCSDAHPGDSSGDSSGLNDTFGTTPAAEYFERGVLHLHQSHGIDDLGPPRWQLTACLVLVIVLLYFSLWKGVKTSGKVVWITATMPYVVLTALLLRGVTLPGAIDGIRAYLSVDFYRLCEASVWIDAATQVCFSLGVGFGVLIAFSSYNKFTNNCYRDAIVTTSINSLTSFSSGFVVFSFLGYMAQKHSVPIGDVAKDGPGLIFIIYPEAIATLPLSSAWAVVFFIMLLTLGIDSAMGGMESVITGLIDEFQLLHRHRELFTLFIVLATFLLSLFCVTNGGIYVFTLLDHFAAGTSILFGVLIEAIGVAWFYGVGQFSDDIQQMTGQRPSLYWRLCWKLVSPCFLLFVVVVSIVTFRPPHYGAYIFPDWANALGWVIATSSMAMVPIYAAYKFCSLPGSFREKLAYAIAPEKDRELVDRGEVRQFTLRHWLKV
Beta-3 adrenergic receptor, sequence (P13945 whole entry): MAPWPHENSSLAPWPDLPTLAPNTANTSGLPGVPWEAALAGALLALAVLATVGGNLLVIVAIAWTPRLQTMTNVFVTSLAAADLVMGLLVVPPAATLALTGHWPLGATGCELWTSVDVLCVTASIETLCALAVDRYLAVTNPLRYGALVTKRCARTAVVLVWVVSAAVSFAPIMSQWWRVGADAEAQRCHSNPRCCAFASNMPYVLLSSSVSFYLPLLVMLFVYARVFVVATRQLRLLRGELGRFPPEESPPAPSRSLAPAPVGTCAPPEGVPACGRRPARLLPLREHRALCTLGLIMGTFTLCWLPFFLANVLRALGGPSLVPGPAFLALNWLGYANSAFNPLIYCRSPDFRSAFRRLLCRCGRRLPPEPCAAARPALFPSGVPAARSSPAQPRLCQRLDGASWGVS
5-hydroxytryptamine receptor 4, sequence (O70528 whole entry): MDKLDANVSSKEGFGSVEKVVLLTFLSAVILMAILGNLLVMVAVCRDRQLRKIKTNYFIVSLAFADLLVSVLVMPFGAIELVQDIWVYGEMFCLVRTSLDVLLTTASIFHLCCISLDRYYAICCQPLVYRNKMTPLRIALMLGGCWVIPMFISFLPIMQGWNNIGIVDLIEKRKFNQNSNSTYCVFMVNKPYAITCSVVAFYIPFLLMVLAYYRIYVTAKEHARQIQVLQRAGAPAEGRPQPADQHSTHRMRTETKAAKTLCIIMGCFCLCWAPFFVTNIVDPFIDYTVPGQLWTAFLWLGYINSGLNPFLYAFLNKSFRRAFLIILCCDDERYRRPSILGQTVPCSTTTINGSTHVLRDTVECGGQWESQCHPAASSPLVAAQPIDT
C-C chemokine receptor type 2, sequence (P41597 whole entry): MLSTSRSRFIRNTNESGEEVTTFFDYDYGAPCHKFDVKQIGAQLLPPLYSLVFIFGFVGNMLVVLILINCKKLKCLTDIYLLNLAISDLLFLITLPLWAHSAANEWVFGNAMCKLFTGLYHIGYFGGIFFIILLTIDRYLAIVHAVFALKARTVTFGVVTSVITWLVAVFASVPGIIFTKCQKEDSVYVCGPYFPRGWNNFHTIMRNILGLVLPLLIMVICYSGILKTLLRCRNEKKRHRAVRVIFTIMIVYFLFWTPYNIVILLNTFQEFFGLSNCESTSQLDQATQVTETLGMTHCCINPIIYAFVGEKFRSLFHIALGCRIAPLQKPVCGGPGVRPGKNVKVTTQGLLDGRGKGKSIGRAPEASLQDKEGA
Tyrosine-protein kinase Fyn, sequence (P06241 whole entry): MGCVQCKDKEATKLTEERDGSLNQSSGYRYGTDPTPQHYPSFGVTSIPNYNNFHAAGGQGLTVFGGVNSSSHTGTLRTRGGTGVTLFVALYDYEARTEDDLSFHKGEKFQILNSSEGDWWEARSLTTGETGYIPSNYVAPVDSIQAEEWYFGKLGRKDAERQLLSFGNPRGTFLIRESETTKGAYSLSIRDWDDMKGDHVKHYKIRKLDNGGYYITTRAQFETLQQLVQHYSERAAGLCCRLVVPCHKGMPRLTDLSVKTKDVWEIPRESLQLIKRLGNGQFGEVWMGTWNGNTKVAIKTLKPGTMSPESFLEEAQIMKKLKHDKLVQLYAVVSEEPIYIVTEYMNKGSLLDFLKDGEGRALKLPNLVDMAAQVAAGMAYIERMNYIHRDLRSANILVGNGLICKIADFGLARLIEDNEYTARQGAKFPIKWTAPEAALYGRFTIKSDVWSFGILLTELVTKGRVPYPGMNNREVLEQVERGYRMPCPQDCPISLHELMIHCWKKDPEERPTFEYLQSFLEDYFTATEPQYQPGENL
Histamine H2 receptor, sequence (P25021 whole entry): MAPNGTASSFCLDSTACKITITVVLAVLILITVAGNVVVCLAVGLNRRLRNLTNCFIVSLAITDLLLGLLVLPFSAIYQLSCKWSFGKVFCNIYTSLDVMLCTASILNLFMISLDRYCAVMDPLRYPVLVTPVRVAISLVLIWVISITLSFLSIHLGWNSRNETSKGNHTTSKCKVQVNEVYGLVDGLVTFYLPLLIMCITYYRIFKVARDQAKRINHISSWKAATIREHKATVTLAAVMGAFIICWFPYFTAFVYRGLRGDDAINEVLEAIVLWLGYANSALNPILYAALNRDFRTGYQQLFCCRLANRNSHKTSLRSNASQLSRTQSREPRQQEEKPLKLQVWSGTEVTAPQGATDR
Cytochrome P450 2C19, sequence (P33261 whole entry): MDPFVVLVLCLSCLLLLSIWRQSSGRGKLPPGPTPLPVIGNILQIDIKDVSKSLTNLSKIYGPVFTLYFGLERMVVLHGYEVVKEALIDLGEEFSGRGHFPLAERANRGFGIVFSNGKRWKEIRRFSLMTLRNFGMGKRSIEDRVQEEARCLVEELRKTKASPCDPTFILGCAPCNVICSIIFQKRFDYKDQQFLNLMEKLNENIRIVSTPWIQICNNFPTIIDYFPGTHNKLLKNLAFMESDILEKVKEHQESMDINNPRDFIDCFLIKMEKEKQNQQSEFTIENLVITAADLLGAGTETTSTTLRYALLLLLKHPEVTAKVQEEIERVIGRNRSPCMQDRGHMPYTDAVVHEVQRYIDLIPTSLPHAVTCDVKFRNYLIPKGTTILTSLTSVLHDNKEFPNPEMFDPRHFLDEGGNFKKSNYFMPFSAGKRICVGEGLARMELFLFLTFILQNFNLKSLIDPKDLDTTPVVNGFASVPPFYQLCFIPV

Regarding `c1ccc2c(c1)cc1ccc3cccc4ccc2c1c34`, the IC50 result in data set [1], in [2], in data set [3], in data set [4], in data set [5] and in data set [6] was “Not Active” throughout. Further, the IC50 result in data set [7], in data set [8], in data set [9], in data set [10], in data set [11] and in [12] was “Not Active” throughout. Further, the IC50 is 26.2 µM in [13] (read-out: IC50); “Not Active” in [14]; “Not Active” in data set [15]; “Not Active” in data set [16]; “Not Active” in [17]. Also, the Ki result in [1], in data set [2], in [3], in [11], in [15] and in data set [17] was “Not Active” each time.
`O=C1OCCN1/N=C/c1ccc([N+](=O)[O-])o1` [FURAZOLIDONE]: the IC50 result in [2], in [3], in data set [4], in data set [5], in [6] and in data set [7] was “Not Active” each time. In addition, the IC50 result in data set [8], in data set [9], in data set [10], in [11], in data set [12] and in [13] (insect cells) was “Not Active” each time. Besides, the IC50 result in data set [14], in [15], in [16] and in [17] was “Not Active” each time. In addition, the Ki result in [2], in [3], in data set [11], in [15] and in data set [17] was “Not Active” throughout.
`NCC(=O)O` [GLYCINE]: the half-maximal inhibitory concentration (IC50) entry in [2], in data set [3], in data set [4], in data set [5], in data set [6] and in data set [7] was “Not Active” throughout. For the same compound, the 50% inhibitory concentration (IC50) entry in data set [8], in data set [9], in [10], in data set [11], in data set [12] and in [13] (insect cells) was “Not Active” in each case. Further, the IC50 result in [14], in data set [15], in data set [16] and in data set [17] was “Not Active” throughout. Moreover, the Ki result in [2], in [3], in data set [11], in data set [15] and in data set [17] was “Not Active” each time.
Turning to `O=P1(NCCCl)OCCCN1CCCl` (configuration not stated) [IFOSFAMIDE], the IC50 entry in data set [2], in data set [3], in [4], in data set [5], in data set [6] and in data set [7] was “Not Active” throughout. Also, the IC50 entry in data set [8], in [9], in data set [10], in data set [11], in data set [12] and in data set [13] (insect cells) was “Not Active” in each case. In addition, the IC50 entry in data set [14], in data set [15], in data set [16] and in [17] was “Not Active” each time. The Ki entry in data set [2], in [3], in [11], in data set [15] and in data set [17] was “Not Active” each time.
With `C=C(C)[C@@H]1[C@H]2OC(=O)[C@@H]1[C@]1(O)C[C@H]3O[C@]34C(=O)O[C@H]2[C@]14C` [PICROTOXININ], the half-maximal inhibitory concentration (IC50) entry in [2], in data set [3], in [4], in data set [5], in [6] and in data set [7] was “Not Active” each time. In addition, the IC50 entry in [8], in data set [9], in [10], in data set [11], in data set [12] and in data set [13] (insect cells) was “Not Active” each time. For the same compound, the IC50 result in [14], in [15], in data set [16] and in data set [17] was “Not Active” each time. Besides, the Ki entry in data set [2], in [3], in [11], in data set [15] and in data set [17] was “Not Active” in each case.
